Assay results published in patent US11072588B2, “Barbituric acid derivatives comprising cationic and lipophilic groups” (UNIVERSITETET I TROMSØ—NORGES ARKTISKE UNIVERSITET, priority 2017, dated 2021).
Where two headings read alike, the source gives them in different places.

Columns and labels:
P. aeruginosa 50692172 = assay: MIC, multi-resistant clinical isolate; type: cell-based, Pseudomonas aeruginosa; details: for MIC: Pseudomonas aeruginosa, read-out: Antimicrobial activity (MIC); for selectivity index (EC50/MIC): RBC EC50 / MIC
P. aeruginosa K34-7 = assay: MIC, multi-resistant clinical isolate; type: cell-based, Pseudomonas aeruginosa; details: for MIC: Pseudomonas aeruginosa, K347, read-out: Antimicrobial activity (MIC); for selectivity index (EC50/MIC): RBC EC50 / MIC, P. aeruginosa K34-7
[1] = test system: antibiotic susceptible Gram-positive and Gram-negative reference strains; assay: MIC assay, ranges over the reference strains; type: cell-based
Experimental: (§1) Working solutions of the test derivatives were prepared with up to 100% DMSO and stored at −20° C. If necessary, the solutions were heated to 40-80° C. before testing to facilitate complete dissolution. Double-distilled water was used in all dilutions prepared. […] A microdilution susceptibility test was used for MIC determination according to Clinical and Laboratory Standards Institute, “Methods for Dilution Antimicrobial Sisceptibility Tests for Bacteria That Graw Aerobically”, Approved Standard M07-A9, edition 2012, with modifications as described by Igumnova et al (Bioorg Med Chem, 2016, 24 (22), 5884-5894).
(§2) Briefly, the bacterial inoculum was adjusted to approximately 2.5-3×10^4 cells/mL in Mueller-Hinton broth (MHB, Difco Laboratories, USA), and incubated in a ratio of 1:1 with test derivatives in polystyrene 96-well flat-bottom microplates (NUNC, Roskilde, Denmark). Positive growth control (without test derivatives) and negative control (without bacteria) were included. The reference antibiotic was oxytetracycline hydrochloride (Sigma Aldrich, Saint Louis, Mo., USA). The microplates were incubated in an EnVision microplate reader (Perkin-Elmer, Turku, Finland) placed in an incubator set to 35° C. for 48 h. The MIC value was defined as the lowest concentration of derivative resulting in no bacterial growth as determined by OD600 measurement. All derivatives were tested in three parallels.

[2] = Determination of haemolytic activity; type: cell-based; details: human red blood cells (washed, from heparinized fresh blood); human RBCs, 1 h, 37° C.; read-out: RBC: haemolytic activity against human RBCs (EC50)
Experimental: Hemolysis was determined using a heparinized fraction (1000 IU/mL) of freshly drawn blood. Blood collected in EDTA containing test tubes (Vacutest®, KIMA, Arzergrande, Italy) was used for determination of the hematocrit (hct). The heparinized blood was washed 3× with pre-warmed PBS and adjusted to a final hct of 4%. Derivatives in DMSO (50 mM) were added to a 96-well polypropylene V-bottom plate (NUNC, Fisher Scientific, Oslo, Norway) and serially diluted. The test concentration range was 500-4 μM with DMSO contents ≤1%. A solution of 1% triton X-100 was used as positive control for 100% hemolysis. As negative control a solution of 1% DMSO in PBS buffer was included. No signs of DMSO toxicity were detected. RBCs (1% v/v final concentration) were added to the well plate and incubated at 37° C. and 800 rpm for 1 h. After centrifugation (5 min, 3000 g), 100 μL of each well were transferred to a 96-well flat bottom plate and absorbance was measured at 545 nm with a microplate reader (VersaMax™, Molecular Devices, Sunnyvale, Calif., USA). The percentage of hemolysis was calculated as the ratio of the absorbance in the derivative-treated and surfactant treated samples, corrected for the PBS background. Three independent experiments were performed and EC50 values are presented as averages.

A. baumanii K55-13 = assay: MIC, multi-resistant clinical isolate; type: cell-based, Acinetobacter baumannii; details: for MIC: Acinetobacter baumannii, K5513, read-out: Antimicrobial activity (MIC); for selectivity index (EC50/MIC): RBC EC50 / MIC
Experimental: as §1, §2
(§3) The MIC was determined as explained above with some exceptions; working solutions of test derivatives were prepared from concentrated DMSO stocks stored at room temperature, the density of the bacterial inoculum was increased 40× to 1-1.2×10^6 cells/mL, enterococci were incubated in Brain Heart Infusion broth (BHIB, Difco Laboratories, USA), the microplates were incubated for 24 h, and the derivatives were tested in four parallels.

A. baumanii K12-21 = assay: MIC, multi-resistant clinical isolate; type: cell-based, Acinetobacter baumannii; details: for MIC: Acinetobacter baumannii, K1221, read-out: Antimicrobial activity (MIC); for selectivity index (EC50/MIC): RBC EC50 / MIC
Experimental: as §1, §2, §3

A. baumanii K44-35 = assay: MIC, multi-resistant clinical isolate; type: cell-based, Acinetobacter baumannii; details: for MIC: Acinetobacter baumannii, K4435, read-out: Antimicrobial activity (MIC); for selectivity index (EC50/MIC): RBC EC50 / MIC
Experimental: as §1, §2, §3

A. baumanii K63-58 = assay: MIC, multi-resistant clinical isolate; type: cell-based, Acinetobacter baumannii; details: A. baumanii K63-58, resistant to colistin; for MIC: Acinetobacter baumannii, K6358, 24 h, read-out: Antimicrobial activity (MIC); for selectivity index (EC50/MIC): RBC EC50 / MIC
Experimental: as §1, §2, §3

A. baumanii K47-42 = assay: MIC, multi-resistant clinical isolate; type: cell-based, Acinetobacter baumannii; details: for MIC: Acinetobacter baumannii, K4742, read-out: Antimicrobial activity (MIC); for selectivity index (EC50/MIC): RBC EC50 / MIC
Experimental: as §1, §2, §3

K. pneumoniae 50625602 = assay: MIC, multi-resistant clinical isolate; type: cell-based, Klebsiella pneumoniae; details: for MIC: Klebsiella pneumoniae, read-out: Antimicrobial activity (MIC); for selectivity index (EC50/MIC): RBC EC50 / MIC
Experimental: as §1, §2, §3

K. pneumoniae K66-45 = assay: MIC, multi-resistant clinical isolate; type: cell-based, Klebsiella pneumoniae; details: for MIC: Klebsiella pneumoniae, K6645, read-out: Antimicrobial activity (MIC); for selectivity index (EC50/MIC): RBC EC50 / MIC, K. pneumoniae K66-45
Experimental: as §1, §2, §3

K. pneumoniae 50667959 = assay: MIC, multi-resistant clinical isolate; type: cell-based, Klebsiella pneumoniae; details: for MIC: Klebsiella pneumoniae, read-out: Antimicrobial activity (MIC); for selectivity index (EC50/MIC): RBC EC50 / MIC
Experimental: as §1, §2, §3

K. pneumoniae K47-25 = assay: MIC, multi-resistant clinical isolate; type: cell-based, Klebsiella pneumoniae; details: for MIC: Klebsiella pneumoniae, K4725, 24 h, read-out: Antimicrobial activity (MIC); for selectivity index (EC50/MIC): RBC EC50 / MIC
Experimental: as §1, §2, §3

K. pneumoniae 50531633 = assay: MIC, multi-resistant clinical isolate; type: cell-based, Klebsiella pneumoniae; details: K. pneumoniae 50531633, resistant to colistin; for MIC: Klebsiella pneumoniae, 24 h, read-out: Antimicrobial activity (MIC); for selectivity index (EC50/MIC): RBC EC50 / MIC
Experimental: as §1, §2, §3

[3] = K. pneumoniae K47-25, resistant to colistin
[4] = reference strains, range, read-out: MIC values against the Gram-negative bacteria E. coli and P. aeruginosa

CC(C)(C)c1cc(CC2(Cc3cc(C(C)(C)C)cc(C(C)(C)C)c3)C(=O)N(CCCCN)C(=O)N(CCCCN)C2=O)cc(C(C)(C)C)c1 [7(iii), 1,3-bis(4-aminobutyl)-5,5-bis(3,5-di-tert-butylbenzyl)-pyrimidin-2,4,6(1H,3H,5H)-trione]
0.25 to 4 µg/mL: MIC ([1]; range over S. aureus, C. glutamicum, E. coli, P. aeruginosa reference strains, read-out: MIC values against all the reference strains)
4 µg/mL: MIC (A. baumanii K55-13) | MIC (A. baumanii K12-21) | MIC (A. baumanii K44-35) | MIC (A. baumanii K63-58) | MIC (A. baumanii K47-42)
(<1): selectivity index (EC50/MIC) (A. baumanii K55-13) | selectivity index (EC50/MIC) (A. baumanii K12-21) | selectivity index (EC50/MIC) (A. baumanii K44-35) | selectivity index (EC50/MIC) (A. baumanii K63-58) | selectivity index (EC50/MIC) (A. baumanii K47-42)
16 µg/mL: MIC (K. pneumoniae K47-25)
(<2.5): selectivity index (EC50/MIC) (K. pneumoniae K47-25; [3])
< 4 µg/mL: EC50 at 1 h [2]
8 µg/mL: MIC (P. aeruginosa 50692172) | MIC (P. aeruginosa K34-7) | MIC (K. pneumoniae 50625602) | MIC (K. pneumoniae K66-45) | MIC (K. pneumoniae 50667959) | MIC (K. pneumoniae 50531633)
(<0.5): selectivity index (EC50/MIC) (P. aeruginosa 50692172) | selectivity index (EC50/MIC) (P. aeruginosa K34-7) | selectivity index (EC50/MIC) (K. pneumoniae 50625602) | selectivity index (EC50/MIC) (K. pneumoniae K66-45) | selectivity index (EC50/MIC) (K. pneumoniae 50667959) | selectivity index (EC50/MIC) (K. pneumoniae 50531633)

N=C(N)NCCCCN1C(=O)N(CCCCNC(=N)N)C(=O)C(Cc2cc(Br)cc(Br)c2)(Cc2cc(Br)cc(Br)c2)C1=O [8(ii), 1,1′-(4,4′-(5,5-bis(3,5-dibromobenzyl)-2,4,6-trioxodihydropyrimidine-1,3(2H,4H)-diyl)bis(butane-4,1-diyl))diguanidine]
(7): selectivity index (EC50/MIC) (P. aeruginosa 50692172) | selectivity index (EC50/MIC) (P. aeruginosa K34-7) | selectivity index (EC50/MIC) (A. baumanii K55-13)
8 µg/mL: MIC (P. aeruginosa 50692172) | MIC (P. aeruginosa K34-7) | MIC (A. baumanii K55-13)
1 to 4 µg/mL: MIC [1, 4]
(14): selectivity index (EC50/MIC) (A. baumanii K12-21) | selectivity index (EC50/MIC) (A. baumanii K44-35) | selectivity index (EC50/MIC) (A. baumanii K63-58) | selectivity index (EC50/MIC) (A. baumanii K47-42) | selectivity index (EC50/MIC) (K. pneumoniae 50625602) | selectivity index (EC50/MIC) (K. pneumoniae K66-45) | selectivity index (EC50/MIC) (K. pneumoniae 50667959) | selectivity index (EC50/MIC) (K. pneumoniae K47-25; [3]) | selectivity index (EC50/MIC) (K. pneumoniae 50531633)
4 µg/mL: MIC (A. baumanii K12-21) | MIC (A. baumanii K44-35) | MIC (A. baumanii K63-58) | MIC (A. baumanii K47-42) | MIC (K. pneumoniae 50625602) | MIC (K. pneumoniae K66-45) | MIC (K. pneumoniae 50667959) | MIC (K. pneumoniae K47-25; [3]) | MIC (K. pneumoniae 50531633)
56 µg/mL: EC50 at 1 h [2]

CC(C)(C)c1cc(CC2(Cc3cc(C(C)(C)C)cc(C(C)(C)C)c3)C(=O)N(CCCCNC(=N)N)C(=O)N(CCCCNC(=N)N)C2=O)cc(C(C)(C)C)c1 [8(iii), 1,1′-(4,4′-(5,5-bis(3,5-di-tert-butylbenzyl)-2,4,6-trioxodihydropyrimidine-1,3(2H,4H)-diyl)bis(butane-4,1-diyl))-diguanidine]
16 µg/mL: MIC (P. aeruginosa 50692172) | MIC (P. aeruginosa K34-7) | MIC (K. pneumoniae 50625602) | MIC (K. pneumoniae K47-25; [3]) | MIC (K. pneumoniae 50531633)
4 µg/mL: MIC [1, 4] | MIC (A. baumanii K55-13) | MIC (A. baumanii K12-21) | MIC (A. baumanii K44-35) | MIC (A. baumanii K63-58) | MIC (A. baumanii K47-42)
(<0.5): selectivity index (EC50/MIC) (K. pneumoniae K66-45) | selectivity index (EC50/MIC) (K. pneumoniae 50667959)
(<0.25): selectivity index (EC50/MIC) (P. aeruginosa 50692172) | selectivity index (EC50/MIC) (P. aeruginosa K34-7) | selectivity index (EC50/MIC) (K. pneumoniae 50625602) | selectivity index (EC50/MIC) (K. pneumoniae K47-25; [3]) | selectivity index (EC50/MIC) (K. pneumoniae 50531633)
(<1): selectivity index (EC50/MIC) (A. baumanii K55-13) | selectivity index (EC50/MIC) (A. baumanii K12-21) | selectivity index (EC50/MIC) (A. baumanii K44-35) | selectivity index (EC50/MIC) (A. baumanii K63-58) | selectivity index (EC50/MIC) (A. baumanii K47-42)
< 4 µg/mL: EC50 at 1 h [2]
8 µg/mL: MIC (K. pneumoniae K66-45) | MIC (K. pneumoniae 50667959)
